Values quoted from earlier work in patent US20120289594A1, “ORAL DOSAGE FORM” (Orion Corporation, priority 2005, published 2012).

How the values were obtained:
[1] = background statement
[2] = background statement; remark: listed apart in the source

Compound: CCN(CC)C(=O)/C(C#N)=C/c1cc(O)c(O)c([N+](=O)[O-])c1 [Entacapone, (E)-2-cyano-3-(3,4-dihydroxy-5-nitrophenyl)-N-diethyl-2 propenamide]
- water solubility [1]: very low
- absorption in the gastrointestinal tract [2]: quickly absorbed
